{
  "source": "patent US8501400B2",
  "about": "“Methods and compositions for determining the pathogenic status of infectious agents” (priority 2007, dated 2013)",
  "key": {"H37Rv cells [1]": {"tested_on": "H37Rv cells", "assay": "Sp6 SML-phage drug susceptibility test: SML generation (RT-PCR) in drug-treated Mtb", "format": "cell-based", "conditions": "0.2 μg/ml INH, 2 μg/ml STR or 7.5 μg/ml EMB, Sp6 SML-phage MOI of 1 for 4 hr"}, "H37Rv cells [2]": {"tested_on": "H37Rv cells", "assay": "Effect of mucolytic agents on phage infection and SML generation", "format": "cell-based, Mtb", "conditions": "equal volume of 0.5% NALC/2.9% NaCitrate or 200 mM TCEP/2.9% NaCitrate, one hour at 37° C., then SML-phage 4 hr; HiSalt conditions not given"}, "[3]": {"conditions": "16 hr treatment at 37° C. with 2 μg/ml RIF"}, "[4]": {"conditions": "40 hr treatment at 37° C. with 2 μg/ml RIF"}},
  "data": [
    {"smiles": "NNC(=O)c1ccncc1", "note": "[INH, isoniazid]", "values": [
      {"measurement": "SML generation after drug treatment", "setting": "H37Rv cells [1]; [3]", "value": "some detectable SML synthesis"},
      {"measurement": "SML generation after drug treatment", "setting": "H37Rv cells [1]; [4]", "value": "completely abolished"}
    ]},
    {"smiles": "CC(=O)N[C@@H](CS)C(=O)O", "note": "[NALC, N-acetyl-L-cysteine]", "values": [
      {"measurement": "Effect on phage infection and SML generation", "setting": "H37Rv cells [2]", "value": "no effect"}
    ]},
    {"smiles": "CC[C@@H](CO)NCCN[C@@H](CC)CO", "note": "[EMB, Ethambutol]", "values": [
      {"measurement": "SML generation after drug treatment", "setting": "H37Rv cells [1]; [3]", "value": "some detectable SML synthesis"},
      {"measurement": "SML generation after drug treatment", "setting": "H37Rv cells [1]; [4]", "value": "completely abolished"}
    ]},
    {"smiles": "O=C(O)CCP(CCC(=O)O)CCC(=O)O", "note": "[TCEP, Tris-Carboxyethylphosphine]", "values": [
      {"measurement": "Effect on phage infection and SML generation", "setting": "H37Rv cells [2]", "value": "completely abolishes SML generation"}
    ]},
    {"smiles": "[H]/N=C(/N)N[C@H]1[C@H](O)[C@@H](O)[C@H](O[C@@H]2O[C@@H](C)[C@](O)(C=O)[C@H]2O[C@@H]2O[C@@H](CO)[C@H](O)[C@@H](O)[C@@H]2NC)[C@@H](N/C(N)=N\\[H])[C@@H]1O", "note": "[STR, Streptomycin]", "values": [
      {"measurement": "SML generation after drug treatment", "setting": "H37Rv cells [1]; [3]", "value": "no detectable SML"},
      {"measurement": "SML generation after drug treatment", "setting": "H37Rv cells [1]; [4]", "value": "no detectable SML"}
    ]}
  ]
}
